Among the data in patent publication US8975406B2, “Compound useful for the treatment of degenerative and inflammatory diseases” (Galapagos N.V., priority 2011, dated 2015) are IC50 and Ki values, retold here.

What all share (type): biochemical
Test [1] concerns the target T1, Recombinant human JAK1 catalytic domain (Homo sapiens, UniProt P23458).
T1 construct: catalytic domain (amino acids 866-1154; catalog number PV4774); purchased Invitrogen PV4774
Description: JAK1 assay polyGT substrate. The settings on record: 33P-gamma-ATP filter assay, 2 μM ATP. As to the method: Recombinant human JAK1 catalytic domain (amino acids 866-1154; catalog number PV4774) was purchased from Invitrogen. 25 ng of JAK1 was incubated with 6.25 μg polyGT substrate (Sigma catalog number P0275) in kinase reaction buffer (15 mM Hepes pH7.5, 0.01% Tween20, 10 mM MgCl2, 2 μM non-radioactive ATP, 0.25 μCi ^33P-gamma-ATP (Perkin Elmer, catalog number NEG602K001MC) final concentrations) with or without 5 μL containing test compound or vehicle (DMSO, 1% final concentration), in a total volume of 25 μL, in a polypropylene 96-well plate (Greiner, V-bottom). After 75 min at 30° C., reactions were stopped by adding of 25 μL/well of 150 mM phosphoric acid. All of the terminated kinase reaction was transferred to prewashed (75 mM phosphoric acid) 96 well filter plates (Perkin Elmer catalog number 6005177) using a cell harvester (Perkin Elmer). Plates were washed 6 times with 300 μL per well of a 75 mM phosphoric acid solution and the bottom of the plates was sealed. 40 μL/well of Microscint-20 was added, the top of the plates was sealed and readout was performed using the Topcount (Perkin Elmer). Kinase activity was calculated by subtracting counts per min (cpm) obtained in the presence of a positive control inhibitor (10 μM staurosporine) from cpm obtained in the presence of vehicle. The ability of a test compound to inhibit this activity was determined as: Percentage inhibition=((cpm determined for sample with test compound present−cpm determined for sample with positive control inhibitor)divided by(cpm determined in the presence of vehicle−cpm determined for sample with positive control inhibitor))*100.
Dose dilution series were prepared for the compounds enabling the testing of dose-response effects in the JAK1 assay and the calculation of the IC50 for each compound. Each compound was routinely tested at concentration of 20 μM followed by a ⅓ serial dilution, 8 points (20 μM-6.67 μM-2.22 μM-740 nM-247 nM-82 nM-27 nM-9 nM) in a final concentration of 1% DMSO. When potency of compound series increased, more dilutions were prepared and/or the top concentration was lowered (e.g. 5 μM, 1 μM).

Test [2] deals with T2, Recombinant human JAK2 catalytic domain (Homo sapiens, UniProt O60674).
T2 construct: catalytic domain (amino acids 808-1132; catalog number PV4210); GST; purchased Invitrogen PV4210
The test can be described thus: JAK2 assay polyGT substrate. The settings on record: 33P-gamma-ATP filter assay, 1 μM ATP. The method, then: Recombinant human JAK2 catalytic domain (amino acids 808-1132; catalog number PV4210) was purchased from Invitrogen. 0.05 mU of JAK2 was incubated with 2.5 μg polyGT substrate (Sigma catalog number P0275) in kinase reaction buffer (10 mM MOPS pH 7.5, 0.5 mM EDTA, 0.01% Brij-35, 1 mM DTT, 15 mM MgAc, 1 μM non-radioactive ATP, 0.25 μCi ^33P-gamma-ATP (Perkin Elmer, catalog number NEG602K001MC) final concentrations) with or without 5 μL containing test compound or vehicle (DMSO, 1% final concentration), in a total volume of 25 μL, in a polypropylene 96-well plate (Greiner, V-bottom). After 90 min at 30° C., reactions were stopped by adding of 25 μL/well of 150 mM phosphoric acid. All of the terminated kinase reaction was transferred to prewashed (75 mM phosphoric acid) 96 well filter plates (Perkin Elmer catalog number 6005177) using a cell harvester (Perkin Elmer). Plates were washed 6 times with 300 μL per well of a 75 mM phosphoric acid solution and the bottom of the plates was sealed. 40 μL/well of Microscint-20 was added, the top of the plates was sealed and readout was performed using the Topcount (Perkin Elmer). Kinase activity was calculated by subtracting counts per min (cpm) obtained in the presence of a positive control inhibitor (10 μM staurosporine) from cpm obtained in the presence of vehicle. The ability of a test compound to inhibit this activity was determined as: Percentage inhibition=((cpm determined for sample with test compound present−cpm determined for sample with positive control inhibitor)divided by(cpm determined in the presence of vehicle−cpm determined for sample with positive control inhibitor))*100.
Dose dilution series were prepared for the compounds enabling the testing of dose-response effects in the JAK2 assay and the calculation of the IC50 for each compound. Each compound was routinely tested at concentration of 20 μM followed by a ⅓ serial dilution, 8 points (20 μM-6.67 μM-2.22 μM-740 nM-247 nM-82 nM-27 nM-9 nM) in a final concentration of 1% DMSO. When potency of compound series increased, more dilutions were prepared and/or the top concentration was lowered (e.g. 5 μM, 1 μM).

The next test deals with T3, JAK3 (Homo sapiens, UniProt P52333).
T3 construct: catalytic domain (amino acids 795-1124; catalog number 08-046); purchased Carna Biosciences 08-046
The test can be described thus: JAK3 Ki determination assay. The note with it: Lineweaver-Burk plot, polyGT substrate, varying ATP. The method, then: For the determination of Ki, different amounts of compound are mixed with the enzyme and the enzymatic reaction is followed as a function of ATP concentration. The Ki is determined by means of double reciprocal plotting of Km vs compound concentration (Lineweaver-Burk plot). JAK3 (Carna Biosciences, 08-046) was used at a final concentration of 20 ng/ml. The substrate was Poly(Glu,Tyr)sodium salt (4:1), MW 20 000-50 000 (Sigma, P0275) The reaction was performed in 25 mM Tris pH 7.5, 0.01% Triton X-100, 0.5 mM EGTA, 2.5 mM DTT, 0.5 mM Na3VO4, 5 mM b-glycerolphosphate, 10 mM MgCl2 with varying concentrations of ATP and compound and stopped by addition of 150 mM phosphoric acid. Measurement of incorporated phosphate into the substrate polyGT was done by loading the samples on a filter plate (using a harvester, Perkin Elmer) and subsequent washing. Incorporated ^33P in polyGT is measured in a Topcount scintillation counter after addition of scintillation liquid to the filter plates (Perkin Elmer).

The structures appear in SMILES notation.

One may read the IC50 as the point on the concentration scale where inhibition reaches its midpoint. As usually defined, the Ki is the dissociation constant of the complex between target and ligand, obtained from inhibition or displacement.

T2 sequence (O60674 808-1132): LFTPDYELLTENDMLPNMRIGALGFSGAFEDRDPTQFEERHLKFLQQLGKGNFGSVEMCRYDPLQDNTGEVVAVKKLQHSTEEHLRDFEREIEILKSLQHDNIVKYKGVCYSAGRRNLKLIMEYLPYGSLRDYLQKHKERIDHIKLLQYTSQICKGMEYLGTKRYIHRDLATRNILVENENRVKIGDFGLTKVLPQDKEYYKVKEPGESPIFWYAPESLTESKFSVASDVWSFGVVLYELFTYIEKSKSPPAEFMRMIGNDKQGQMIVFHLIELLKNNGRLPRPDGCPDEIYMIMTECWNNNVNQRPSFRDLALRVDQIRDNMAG
T1 sequence (P23458 866-1154): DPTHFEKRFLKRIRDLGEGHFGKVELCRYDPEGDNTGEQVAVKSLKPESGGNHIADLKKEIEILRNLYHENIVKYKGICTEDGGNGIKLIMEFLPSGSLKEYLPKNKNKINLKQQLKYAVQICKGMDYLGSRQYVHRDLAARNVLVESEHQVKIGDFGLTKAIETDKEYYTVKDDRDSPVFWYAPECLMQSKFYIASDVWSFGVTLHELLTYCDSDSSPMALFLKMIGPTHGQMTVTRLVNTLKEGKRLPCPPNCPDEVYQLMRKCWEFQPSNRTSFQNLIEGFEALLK
T3 sequence (P52333 795-1124): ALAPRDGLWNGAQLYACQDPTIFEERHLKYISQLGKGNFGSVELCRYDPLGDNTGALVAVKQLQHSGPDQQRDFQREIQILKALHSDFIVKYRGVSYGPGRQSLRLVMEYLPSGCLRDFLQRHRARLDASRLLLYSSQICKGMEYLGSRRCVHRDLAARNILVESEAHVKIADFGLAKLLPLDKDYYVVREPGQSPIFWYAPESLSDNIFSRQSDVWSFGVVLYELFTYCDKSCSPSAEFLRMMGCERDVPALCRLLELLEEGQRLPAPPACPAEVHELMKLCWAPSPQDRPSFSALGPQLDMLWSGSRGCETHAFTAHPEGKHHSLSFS

As to `COc1ccc(-c2cccn3nc(NC(=O)C4CC4)cc23)cc1` [Compound 1, N-(4-(4-methoxyphenyl)pyrazolo[1,5-a]pyridin-2-yl)cyclopropanecarboxamide], the IC50 in test [1] and in test [2] was 0.01 to 100 nM in each case.

With `O=C(Nc1cc2c(-c3ccc(OCc4ccccc4)cc3)cccn2n1)C1CC1` [Compound 2, N-(4-(4-(benzyloxy)phenyl)pyrazolo[1,5-a]pyridin-2-yl)cyclopropanecarboxamide], the IC50 lay within 0.01 to 100 nM in test [1] and 101 to 500 nM in test [2].

On to `O=C(Nc1cc2c(-c3ccc4c(ccn4Cc4ccccc4)c3)cccn2n1)C1CC1` [Compound 3, N-(4-(1-benzyl-1H-indol-5-yl)pyrazolo[1,5-a]pyridin-2-yl)cyclopropanecarboxamide], for which the IC50 lay in the range of 0.01 to 100 nM in test [1] and 101 to 500 nM in test [2].

Regarding `O=C(Nc1cc2c(-c3ccc4[nH]ccc4c3)cccn2n1)C1CC1` [Compound 4, N-(4-(1H-indol-5-yl)pyrazolo[1,5-a]pyridin-2-yl)cyclopropanecarboxamide], the IC50 in test [1] and in test [2] was 0.01 to 100 nM each time.

As for `O=C(NCCc1ccccc1)c1ccc(-c2cccn3nc(NC(=O)C4CC4)cc23)cc1` [Compound 5, 4-(2-(cyclopropanecarboxamido)pyrazolo[1,5-a]pyridin-4-yl)-N-phenethylbenzamide], the IC50 in test [1] and in test [2] was 0.01 to 100 nM in each case.

On to `O=C(NCCOc1ccccc1)c1ccc(-c2cccn3nc(NC(=O)C4CC4)cc23)cc1` [Compound 6, 4-(2-(cyclopropanecarboxamido)pyrazolo[1,5-a]pyridin-4-yl)-N-(2-phenoxyethyl)benzamide], for which the IC50 in test [1] and in test [2] was 0.01 to 100 nM throughout.

As to `COc1ccc(-c2cccn3nc(NC(=O)C4CC4)c(-c4ccccc4)c23)cc1` [Compound 7, N-(4-(4-methoxyphenyl)-3-phenylpyrazolo[1,5-a]pyridin-2-yl)cyclopropanecarboxamide], the IC50 in test [1] and in test [2] was over 1000 nM each time.

For the compound `O=C(Nc1cc2c(-c3ccc(OCc4cccnc4)cc3)cccn2n1)C1CC1` [Compound 8, N-(4-(4-(pyridin-3-ylmethoxy)phenyl)pyrazolo[1,5-a]pyridin-2-yl)cyclopropanecarboxamide], the IC50 in test [1] and in test [2] was 0.01 to 100 nM each time.

`CC(=O)Nc1cc2c(-c3ccc(CN4CCN(S(C)(=O)=O)CC4)c(F)c3)cccn2n1` [Compound 21] displayed a Ki on JAK3 of 227 nM. This lies in the sub-micromolar range.
